The test system of this experiment is U-251 glioblastoma viability, CellTiter-Glo ATP luminescence. In words: cytotoxicity in U-251 glioma cells – cell-based, CellTiter-Glo ATP luminescence, several timepoints, dry powder, mechanism study for HRAS target identification, late-stage follow-up (AID 720616). (In general: Cellular ATP, detected with luciferase, serves as a proxy for viable cell number.)

One may read the AC50 as the midpoint of the concentration-response curve, whichever way the signal moves. A higher AC50 goes with activity only at high concentration. As for `COc1ccc(N(C(=O)CCl)C(C(=O)NCCc2ccccc2)c2cccs2)cc1Cl` (centres undefined), the AC50 is, setting by setting: (measured here: 8 h treatment) 734 nM; (measured here: 24 h treatment) 709 nM; (measured here: 48 h treatment) 1380 nM.
Turning to `C#CCCCC(=O)NCCOCCOCCOc1ccc(N(C(=O)CCl)C(C(=O)NCCc2ccccc2)c2cccs2)cc1Cl` (centres undefined), the AC50 reads like this: (measured here: 8 h treatment) 7550 nM; (measured here: 24 h treatment) 4090 nM; (measured here: 48 h treatment) 10200 nM.
Consider `COC(=O)c1ccc([C@@H]2c3[nH]c4ccccc4c3C[C@@H](C(=O)OC)N2C(=O)CCl)cc1`, for which the AC50 (measured here: 8 h treatment) amounted to 1100 nM, the AC50 (measured here: 24 h treatment) was determined as 856 nM and the AC50 (measured here: 48 h treatment) came out at 1250 nM.
As for `Cc1onc(C(=O)N2CCN(C(c3ccc(Cl)cc3)c3ccc(Cl)cc3)CC2)c1[N+](=O)[O-]`, the AC50 runs as follows: (measured here: 24 h treatment) over 70000 nM; (measured here: 48 h treatment) over 70000 nM.
As to `CC(C)(C)OC(=O)NCCOCCOCCOc1ccc(N(C(=O)CCl)C(C(=O)NCCc2ccccc2)c2cccs2)cc1Cl` (centres undefined), the AC50 is, setting by setting: (measured here: 8 h treatment) 912 nM; (measured here: 24 h treatment) 1220 nM; (measured here: 48 h treatment) 2210 nM.

These data come from PubChem BioAssay AID720616 (Broad Institute, 2013).
